The conditions of series [1]: in the mouse, normal pH; cited from earlier work.
The test system of series [2] is human tumors. Briefly: human tumors xenotransplanted subcutaneously in humanized and non-humanized NSG mice, treated at MTD of CPT. It is filed as in vivo, mouse. Conditions: non-humanized vs humanized group, each at its own MTD. On the procedure:
Once a maximum tolerated dose (MTD) for humanized NSG mice and MTD for non-humanized ones is obtained using the procedure described in Example 3, final validation experiments are performed. Six human tumors are xenotransplanted subcutaneously on the dorsal flank in humanized and non-humanized NSG mice. Once the tumors become palpable, the animals are treated with the MTD dose of CPT of their group, i.e., the humanized mice with the humanized MTD and the non-humanized mice with their MTD. The tumors are measured with calipers twice a week and the results recorded. […] A human dose for CPT can be determined and suitability of the drug for treatment of humans can be determined. The experiments can be performed substituting one or more drugs in place of CPT. The experiments can be performed using one or more drugs in addition to CPT. The experiments can be performed by using introduction of human leukemia cancer cells or other non-solid tumor human cancer cells into the rodent instead of xenotransplantation of solid tumors. Such cancers can be evaluated based on alternative metrics such as cell count.

For series [3], the system named is human tumors. Nature of the series: xenograft test repeated in mice with higher percentage of human bone marrow and hepatocytes. The class given is in vivo, mouse. Conditions: less humanized vs more humanized group. On the procedure:
The procedures in any one or combination of Examples 1-4 are performed with mice having a higher percentage of human bone marrow and hepatocytes. Rather than having a non-human control, the control can be instead, or in addition, mice having the percentage of human bone marrow (and/or human cord blood) used in the experimental group in the first performance of the procedures. Double humanized mice are further supplemented with human or humanized intestinal enzymes to form a triply humanized mouse (bone marrow, liver, and intestinal enzymes), which is then be used as a predictor of human response to anticancer agents. A mouse having humanized intestinal enzymes can be constructed, for example, as described in van Herwaarden et al., J. Clin. Invest., 117 (11):3583-3592, 2007. […] A human dose for CPT can be redetermined and suitability of the drug for treatment of humans can be redetermined.
For orientation: In xenograft studies the graft and the host belong to different species.

In the next series the test system is humanized NSG mice. Nature of the series: toxicity of CPT given by gavage to humanized and non-humanized NSG mice (weight, blood cell counts). It is filed as in vivo, mouse. On the procedure: Once maximum engraftment is reached as measured in Example 1 or 2, initial validation experiments are performed. A reasonable number of doubly humanized mice are obtained within approximately 5 to 6 months from the start of the humanizing process, i.e., 10-12 NSG mice with a >80% human BM and a >60% HSA in their blood. […] Camptothecin (CPT) is administered by gavage to humanized and non-humanized mice. At normal pH, CPT exists in equilibrium between two states: lactone and carboxylate. In the mouse, equilibrium is around 50% for each isoform. However, in human blood, due to an affinity for human serum albumin (HSA), the equilibrium moves towards the carboxylate form, leaving only 3%-5% total CPT in the active lactone form, see Giovanella et al., Annals New York Academy of Sciences 922: 27-35, 2000. The double humanized mouse can act akin to a human in this respect. Higher and higher doses of CPT are administered starting with a dose of 0.5 mg/kg orally by gavage given daily for 5 days followed by 2 days of rest for 3 weeks. Animals are weighed twice a week and their weight recorded. Blood is taken twice a week and blood cells counted. If no toxicity is found, the dose is raised by 50% and the procedure repeated until toxicity is obtained.

Series [4] addresses human serum albumin (HSA) (Homo sapiens, UniProt P02768). Conditions: human blood, equilibrium moved towards carboxylate by affinity for HSA; cited from earlier work.

Sequence of human serum albumin (HSA) (P02768 25-609): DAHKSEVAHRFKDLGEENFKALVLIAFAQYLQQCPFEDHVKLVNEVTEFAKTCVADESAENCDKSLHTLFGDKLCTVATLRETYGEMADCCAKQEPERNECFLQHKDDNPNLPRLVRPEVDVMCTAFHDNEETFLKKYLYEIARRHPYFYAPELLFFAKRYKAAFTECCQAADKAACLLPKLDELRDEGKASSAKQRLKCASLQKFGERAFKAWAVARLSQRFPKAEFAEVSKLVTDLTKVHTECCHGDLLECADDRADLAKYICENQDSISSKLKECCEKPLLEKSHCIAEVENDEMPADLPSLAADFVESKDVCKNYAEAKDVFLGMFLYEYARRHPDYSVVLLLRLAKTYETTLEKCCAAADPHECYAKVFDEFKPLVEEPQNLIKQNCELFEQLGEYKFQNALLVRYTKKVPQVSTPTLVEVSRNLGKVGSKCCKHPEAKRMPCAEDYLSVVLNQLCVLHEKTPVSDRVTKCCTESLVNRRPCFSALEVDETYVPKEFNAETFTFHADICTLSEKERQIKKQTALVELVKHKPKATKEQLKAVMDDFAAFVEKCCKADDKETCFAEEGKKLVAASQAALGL

`CC[C@@]1(O)C(=O)OCc2c1cc1n(c2=O)Cc2cc3ccccc3nc2-1` [CPT, Camptothecin]: the “equilibrium share of each isoform (lactone and carboxylate)” value in series [1] is “around 50%”. Further, the entries for the “anticancer activity (relative size of the tumors)” value in the series on human tumors [2] and in the series with human tumors [3] were “much higher anticancer activity of CPT in the non-humanized group” and “higher anticancer activity of CPT in the less humanized group”, respectively. For the same compound, in the series on humanized NSG mice (human bone marrow cells vs mouse cells), the “sensitivity of human bone marrow cells present in the mouse” value is listed as “more sensitive to camptothecin than mouse cells”. For the same compound, the “hematological toxicity of CPT” value in the series with humanized NSG mice (humanized NSG mice, relation to percentage of human bone marrow) is reported as “directly proportional to the percentage of human bone marrow”. Also, in the series on humanized NSG mice (oral gavage from 0.5 mg/kg daily x5, 2 days rest, 3 weeks, dose raised by 50%, humanized vs non-humanized mice), the “toxicity of CPT for humanized mice” value was “Higher toxicity”. The “total CPT in the active lactone form” value in series [4] is given as 3%-5%.

Values taken from patent US20130121921A1, “Rodent Therapeutic Model And Methods” (The Christus Stehlin Foundation For Cancer Research, priority 2011, published 2013).
